Consider four compounds from US4221909A, “P-Acetamidobenzoic acid salts of 9-(hydroxyalkyl) purines” (Sloan-Kettering Institute for Cancer Research, priority 1978, dated 1980).

The test system of experiment [1] is Influenza A USSR/90(H1 N1). The experiment is described as follows: Anti-Influenza Activity (Hemadsorption Assay), Influenza A USSR/90. The settings on record: for inhibition: Influenza A virus, read-out: % Inhibition of Hemadsorption Foci. Format: cell-based. Here is the method: Upon infection of a monolayer of tissue culture cells by influenza virus, the cell surface is altered so that guinea pig erythrocytes can be adsorbed to the cell surface. The number of foci of adsorbed cells (hemadsorption foci forming units HAFFU) is a quantitative measure of infectivity. The method is as follows.
The monolayers were subcultured in the following manner: The medium was poured off, and the monolayer washed two times with approximately 50 ml per wash of calcium and magnesium free phosphate buffered saline (PBS), (GIBCO #419) at a pH of 7.2. One ml of trypsin-EDTA solution (GIBCO #530L) containing 0.5 g trypsin (1:250) and 2.0 g EDTA/liter of Modified Puck's Saline A was added at 37° C. to each flask and dispersed over the monolayer with gentle shaking. The flasks were then placed in an incubator at 37° C. for approximately 3-5 minutes depending on the time required to dislodge the cells. Occasional shaking was required. Ten ml of planting medium was added to each flask and the cells dispersed by aspirating and expelling the suspension from the pipette. The contents of a series of flasks were pooled and the cells in the suspension were diluted with planting medium to 7-8.5×10^4 cells/ml. The planting medium consisted of the following composition: Minimum Essential Medium Eagles (MEM) with Earle's salts and HEPES buffer (GIBCO #236) supplemented by adding the following substances as specified to 87 ml of MEM:
The following day the medium was removed and replaced with fresh planting medium. The monolayers were used for experimentation when they reached a condition in which they were almost confluent (approximately 3-4 days).
When the Linbro tray HeLa cell cultures were ready for experimentation (see cells), the medium was decanted and 1 ml of maintenance medium (MEM with FCS reduced to 3%) containing the compound being tested at a given concentration was added to 4 replicate cultures within a tray.
A series of different drug concentrations ranging from 2.3 to 150 μg/ml were used. Maintenance medium alone was used for control cultures. After the administration of drug and control medium, 0.1 ml of the diluted viral suspension was added to experimental groups and infected control cultures. Saline alone was added to non-infected control cultures. The Linbro trays were then incubated at 37° C. for 18 hours, after which media in all groups was aspirated. Each culture was washed once with PBS. The saline was aspirated and 0.5 ml of a 0.4% v/v guinea pig red blood cell suspension in PBS was added to each culture well. The cultures remained at room temperature for 30 minutes after which the medium was decanted and culture washed […] with PBS to remove all but the specifically bound red cells. After the third wash, maintenance medium was added to all cultures.
A Howard Micrometer eyepiece (C8385) was inserted within the ocular of a Nikon inverted phase contrast microscope. Each culture was scanned with a 4× low paper objective and direct counts of hemadsorbed red cells were counted using the eyepiece grid as a field marker. Partial or complete fields were counted per experimental group depending on the resulting number and density of hemadsorbed cells in the infected control cultures. Magnification of 60× or 150× were chosen to obtain the best conditions for enumerating the hemadsorbed cells. Field factors were calculated for counting hemadsorption at 60× and 150×. At 60× magnification, total field count was calculated using a multiplication factor of 55.5. At 150× magnification the multiplication factor was 273. The multiplication factors of 55.5 and 273 represent the total number of fields at 60× and 150× magnifications, respectively. The number of fields counted ranged from 3 to 5 per well with 3 to 4 wells per treatment group employed (see raw data tables in results section for number of fields examined). Means and standard errors were calculated and the data was evaluated using student's t-test analysis.

Experiment [2] deals with guinea pig peritoneal macrophages. The experiment is described as follows: Lymphokine Induced (MMF) Guinea Pig Macrophage Proliferation. The experiment is classed as cell-based. The text has this:
The following three assay procedures are used to evaluate the ability of the test substances to modulate the activity of several classes of cells in the immune system. In these systems it is possible to identify both immunopotentiating activity (evidence by an enhancement of the parameter examined) as well as immunosuppressant activity (evidenced by an inhibition of the parameter examined).
3. The macrophage represents a subpopulation of white blood cells which is an important component of the immune system in control of both cellular and humoral immunity. The assay system described below evaluates the substances studied as potentiators of macrophage function.
Phytohemagglutinin(PHA) (HA-17) was purchased from Burroughs Wellcome. A preparation containing Macrophage Mitogen Factor (MMF) and Macrophage Activating Factor (MAF) was prepared from antigen-stimulated immune lymph node lymphocytes (guinea pig) as previously described by Hadden et al, Nature 257, 483-485 (1975). […] The active fraction was employed in both the proliferation and activation assays.
Ficoll-hypaque purified human peripheral blood lymphocytes were prepared and PHA-induced lymphocyte proliferation was assayed by the incorporation of tritiated thymidine as described in Hadden et al, Cell. Immunol. 20, 98-103 (1975). Each compound was analyzed in the presence of suboptimal, optimal and supraoptimal concentrations of PHA (0.001, 0.01, 0.1 units/ml respectively). Paraffin oil-induced guinea pig peritoneal macrophages were prepared and incubated as monolayer culture (>98% pure macrophages). Lymphokine (MMF)-induced proliferation was assayed by the incorporation of triturated thymidine at 3 and 5 days of culture as described, Hadden et al, Nature 257, 483-485 (1975). Lymphokine (MAF)-induced macrophage activation to kill Listeria monocytogenes following 5 days of culture in the presence or absence of MAF was performed during a 6 hour period as described in Hadden and England, Immunopharmacology, pages 87-100 (Plenum Press, 1977). Phagocytosis was quantitated during a 20-minute exposure to Listeria monocytogenes by counting the number of macrophages containing bacteria and the number of bacteria per phagocytic cell on gram stained monolayers in Labtek chambers. Intracellular killing of bacteria was evaluated by counting the number of cells containing bacteria and the number of bacteria/cell 6 hours after the initial 20 minute exposure. Parallel experiments in which macrophages were lysed and intracellular bacteria were cultured confirm the validity of bacterial activity determined by this manner in this sytem. The drugs were employed in each of the three systems over serial log concentration range in triplicate in the presence and absence of mitogen or lymphokine. Each type of experiment was performed at least three times. Previous experiments indicate a parallelism of response to pharmacologic modulation in the proliferation and activation assays.

The inhibition is how much of the control response was suppressed.

For the compound `CCCCCC[C@H]([C@H](C)O)n1cnc2c(=O)[nH]cnc21` (relative stereo) [NPT 15392, Erythro-9-(2-Hydroxy-3-Nonyl)Hypoxanthine], the “% Inhibition of Hemadsorption Foci” value in experiment [1] (Conc. <10 μg/ml, listed as 15392) was determined as 86%. Moreover, in experiment [1] (Conc. 10-100 μg/ml), the inhibition turned out to be 100%.

On to `CCCCCC[C@H]([C@H](C)O)n1cnc2c(=O)[nH]cnc21` (relative stereo) [NPT 15410], for which the “Maximum Percent Change, Lymphokine Induced (MMF) Guinea Pig Mac. Prolif.” value (shortened to “Maximum Percent Change”) in experiment [2] (1.0-10) was determined as 23%; in experiment [2] (.01-1.0) it was 12%. Besides, the “% Inhibition of Hemadsorption Foci” value in experiment [1] (Conc. 10-100 μg/ml) is 96%; in experiment [1] (Conc. <10 μg/ml, listed as 15410) it was 58%; in experiment [1] (Conc. >100 μg/ml) it was 96%.

As to `CCCCCCC(CO)n1cnc2c(=O)[nH]cnc21` (stereo not shown) [NPT 15417], the “Maximum Percent Change” value in experiment [2] (1.0-10, listed as 15417) is on record as 13%; in experiment [2] (10-100), -50%. For the same compound, in experiment [1] (Conc. 10-100 μg/ml), the inhibition came to 58%.

Take `CCCCCCC(CO)n1cnc2c(=O)[nH]cnc21` (stereo not shown) [NPT 15418]: the “Maximum Percent Change” value is given as 80% in experiment [2] (1.0-10, listed as 15418); -50% in experiment [2] (10-100); 12% in experiment [2] (.01-1.0). The “% Inhibition of Hemadsorption Foci” value in experiment [1] (Conc. 10-100 μg/ml) stood at 46%; in experiment [1] (Conc. <10 μg/ml) it was 16%; in experiment [1] (Conc. >100 μg/ml), 52%.
